Measurements published in ChEMBL document CHEMBL1201862, “PubChem BioAssay data set” (2004).
The source made the active and inactive calls.

Tests used:
Coagulation factor XII = target: T1, Coagulation factor XII (Homo sapiens, UniProt P00748); assay type: functional;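 further: activated factor XIIa alpha cleaving a fluorogenic AMC peptide substrate; inhibitor potency from loss of enzyme activity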
T1 sequence (P00748 whole entry): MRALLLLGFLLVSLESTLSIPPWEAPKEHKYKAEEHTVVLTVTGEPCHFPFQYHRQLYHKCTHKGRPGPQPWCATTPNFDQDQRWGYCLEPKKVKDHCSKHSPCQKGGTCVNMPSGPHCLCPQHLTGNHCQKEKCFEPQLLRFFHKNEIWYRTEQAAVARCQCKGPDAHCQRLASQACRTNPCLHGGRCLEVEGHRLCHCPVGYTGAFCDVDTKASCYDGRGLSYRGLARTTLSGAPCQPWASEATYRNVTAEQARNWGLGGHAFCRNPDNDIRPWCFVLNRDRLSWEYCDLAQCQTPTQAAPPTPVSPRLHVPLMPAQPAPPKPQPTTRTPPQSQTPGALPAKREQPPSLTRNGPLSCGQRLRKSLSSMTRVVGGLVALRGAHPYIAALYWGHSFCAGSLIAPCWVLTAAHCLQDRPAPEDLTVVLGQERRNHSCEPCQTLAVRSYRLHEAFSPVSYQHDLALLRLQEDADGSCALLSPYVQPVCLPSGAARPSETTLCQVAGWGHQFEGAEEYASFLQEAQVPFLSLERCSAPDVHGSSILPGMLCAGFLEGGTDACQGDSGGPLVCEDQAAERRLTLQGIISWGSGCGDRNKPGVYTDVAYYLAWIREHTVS

HEK293 [1] = assay: cells; assay type: functional, cell-based; conditions: Homo sapiens
Genome polyprotein = Genome polyprotein (dengue virus type 2, UniProt P29990); assay: Dengue-2 NS5 methyltransferase inhibitors, primary screen, biochemical, confirmation dose response (AID 588689); assay type: functional
[2] = target: T2, Nuclear receptor subfamily 0 group B member 1 (Homo sapiens, UniProt P51843); assay: Luminescence-based cell-based high throughput dose response assay for inhibitors of the orphan nuclear receptor subfamily 0, group B, member 1 (DAX1; NR0B1). [Related pubchem assays (depositor defined):AID504766, AID504790]; assay type: functional
T2 sequence (P51843 whole entry): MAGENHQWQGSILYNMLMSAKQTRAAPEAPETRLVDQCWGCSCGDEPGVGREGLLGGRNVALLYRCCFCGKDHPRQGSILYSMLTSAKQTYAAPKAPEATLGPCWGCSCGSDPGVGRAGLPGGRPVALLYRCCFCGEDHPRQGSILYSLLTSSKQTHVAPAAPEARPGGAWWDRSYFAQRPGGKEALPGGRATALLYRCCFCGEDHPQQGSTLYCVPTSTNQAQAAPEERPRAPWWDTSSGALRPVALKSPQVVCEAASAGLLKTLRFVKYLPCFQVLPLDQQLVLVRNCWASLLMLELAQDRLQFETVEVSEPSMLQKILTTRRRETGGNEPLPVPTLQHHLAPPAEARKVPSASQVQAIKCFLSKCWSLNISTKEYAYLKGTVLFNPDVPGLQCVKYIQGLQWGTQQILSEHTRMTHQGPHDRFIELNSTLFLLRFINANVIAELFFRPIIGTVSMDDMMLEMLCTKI

[3] = target: T3, RNA-binding protein pos-1 (Caenorhabditis elegans, UniProt G5EF15); assay: inhibitors of POS-1/mex-3 RNA binding, dose response, biochemical, fluorescence polarization (AID 1964);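 further: purified POS-1 fused to maltose binding protein made in E. coli; potency of compounds blocking POS-1 binding to fluorescent RNA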
T3 sequence (G5EF15 whole entry): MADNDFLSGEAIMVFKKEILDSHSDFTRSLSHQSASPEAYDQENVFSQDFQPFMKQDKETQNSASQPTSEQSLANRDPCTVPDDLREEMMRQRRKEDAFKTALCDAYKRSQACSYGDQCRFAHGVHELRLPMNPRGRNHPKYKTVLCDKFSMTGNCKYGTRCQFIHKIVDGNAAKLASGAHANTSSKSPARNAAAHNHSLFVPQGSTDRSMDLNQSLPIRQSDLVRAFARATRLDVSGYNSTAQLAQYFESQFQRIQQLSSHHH

[4] = target: T4, Zinc finger protein mex-5 (Caenorhabditis elegans, UniProt Q9XUB2); assay: MEX-5/TCR-2 RNA interaction inhibitors, dose response, biochemical, C. elegans, fluorescence polarization (AID 1960)
T4 sequence (Q9XUB2 whole entry): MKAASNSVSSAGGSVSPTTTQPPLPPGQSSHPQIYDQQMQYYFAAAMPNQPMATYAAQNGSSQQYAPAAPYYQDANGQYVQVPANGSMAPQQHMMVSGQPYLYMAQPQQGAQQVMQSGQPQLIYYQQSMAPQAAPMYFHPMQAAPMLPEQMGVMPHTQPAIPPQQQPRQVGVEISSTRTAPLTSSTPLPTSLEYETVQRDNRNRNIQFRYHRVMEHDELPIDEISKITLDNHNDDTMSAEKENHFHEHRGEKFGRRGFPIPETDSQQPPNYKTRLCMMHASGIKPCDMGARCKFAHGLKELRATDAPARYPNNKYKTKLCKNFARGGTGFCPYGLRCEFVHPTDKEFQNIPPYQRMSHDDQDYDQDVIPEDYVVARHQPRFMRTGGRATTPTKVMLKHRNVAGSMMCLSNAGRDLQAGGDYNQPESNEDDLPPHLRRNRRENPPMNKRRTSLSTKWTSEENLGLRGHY

[5] = target: Alkaline phosphatase, placental type (Homo sapiens, UniProt P05187); assay: PLAP enzyme inhibitors, confirmation, biochemical, luminescence (AID 1512); assay type: functional
[6] = insulin promoter down-regulators in MIN6 cells, imaging, high-content screening, mouse beta cells (AID 1628); assay type: functional
[7] = cytotoxicity in MIN6 insulinoma cells, dose response, cytotoxicity control, cell-based, mouse insulinoma (AID 2122); assay type: functional;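 further: confirmatory high-throughput counterscreen run to flag cytotoxic compounds; mouse MIN-6 beta cells carrying an insulin promoter eGFP reporter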
INS1 = assay: beta cell apoptosis inhibitors, cytokine rescue, dose response, luminescence, retest (AID 449756); assay type: functional, cell-based; conditions: Rattus norvegicus;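 further: cell death triggered by IL-1 beta plus TNF-alpha plus IFN-gamma mixture; protective hits raise ATP signal compared with cytokine alone wells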
[8] = target: T5, Lysine-specific demethylase 4C (Homo sapiens, UniProt Q9H3R0); assay: GASC-1 (JMJD2C) histone demethylase inhibitors, dose response, biochemical, DELFIA europium, cherry-picked samples (AID 488835); assay type: functional
T5 sequence (Q9H3R0 whole entry): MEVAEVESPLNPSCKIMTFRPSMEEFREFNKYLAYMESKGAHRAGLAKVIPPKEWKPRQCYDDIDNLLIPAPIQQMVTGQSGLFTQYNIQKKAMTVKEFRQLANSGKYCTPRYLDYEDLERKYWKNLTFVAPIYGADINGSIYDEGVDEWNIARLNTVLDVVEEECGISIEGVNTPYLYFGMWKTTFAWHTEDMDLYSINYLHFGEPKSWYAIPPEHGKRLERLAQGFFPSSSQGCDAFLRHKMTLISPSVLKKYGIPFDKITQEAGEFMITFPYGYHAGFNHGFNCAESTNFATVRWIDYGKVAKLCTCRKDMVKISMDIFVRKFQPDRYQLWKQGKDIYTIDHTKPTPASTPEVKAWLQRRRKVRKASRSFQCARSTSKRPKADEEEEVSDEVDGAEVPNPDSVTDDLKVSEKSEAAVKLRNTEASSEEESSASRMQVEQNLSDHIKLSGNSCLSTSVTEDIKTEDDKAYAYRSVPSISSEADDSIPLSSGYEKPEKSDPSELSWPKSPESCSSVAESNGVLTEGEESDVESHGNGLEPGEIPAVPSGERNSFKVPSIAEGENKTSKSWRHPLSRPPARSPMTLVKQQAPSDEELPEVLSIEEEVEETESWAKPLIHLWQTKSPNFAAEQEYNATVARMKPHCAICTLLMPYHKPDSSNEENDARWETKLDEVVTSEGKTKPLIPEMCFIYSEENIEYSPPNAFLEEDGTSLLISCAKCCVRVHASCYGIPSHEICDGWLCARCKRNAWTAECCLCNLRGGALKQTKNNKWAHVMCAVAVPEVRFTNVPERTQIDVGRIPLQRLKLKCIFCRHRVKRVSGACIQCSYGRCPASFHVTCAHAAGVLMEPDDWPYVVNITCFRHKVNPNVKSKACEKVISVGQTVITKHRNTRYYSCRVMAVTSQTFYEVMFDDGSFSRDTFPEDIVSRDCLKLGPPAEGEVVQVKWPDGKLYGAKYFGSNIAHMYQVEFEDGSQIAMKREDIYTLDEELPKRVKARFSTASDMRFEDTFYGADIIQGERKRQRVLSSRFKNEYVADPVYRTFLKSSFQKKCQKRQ

[9] = target: Eukaryotic translation initiation factor 4E (Mus musculus, UniProt P63073); assay: eIF4E–eIF4G protein interaction inhibitors, dose response, biochemical, TR-FRET (AID 855); assay type: functional;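 further: potency for disrupting eIF4E binding to eIF4GI seen as loss of FRET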
Trypsin = Trypsin (Sus scrofa, UniProt P00761); assay: porcine trypsin inhibitors, dose response, selectivity assay for Rce1 protease inhibitor project, biochemical, quenched peptide fluorescence, cherry-pick (AID 488789)
CAAX prenyl protease 2 = target: T6, CAAX prenyl protease 2 (Homo sapiens, UniProt Q9Y256); assay: human Rce1 protease inhibitors, dose response, biochemical, yeast membranes, quenched-peptide fluorescence, cherry-pick (AID 588849)
T6 sequence (Q9Y256 whole entry): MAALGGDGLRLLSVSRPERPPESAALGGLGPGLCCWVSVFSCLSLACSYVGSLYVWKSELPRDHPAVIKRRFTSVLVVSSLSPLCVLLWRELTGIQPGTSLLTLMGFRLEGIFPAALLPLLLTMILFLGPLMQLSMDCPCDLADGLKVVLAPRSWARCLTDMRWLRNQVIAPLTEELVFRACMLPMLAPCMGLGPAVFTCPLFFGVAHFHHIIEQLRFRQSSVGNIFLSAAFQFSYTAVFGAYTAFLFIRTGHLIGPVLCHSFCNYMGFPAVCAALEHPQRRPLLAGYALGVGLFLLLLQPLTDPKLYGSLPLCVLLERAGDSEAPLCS

HEK293 [10] = assay: NOD1 signaling inhibitors, primary screen, cell-based, luminescence, uHTS (AID 1578); assay type: functional; conditions: Homo sapiens
HEK293 [11] = assay: cells; assay type: functional, cell-based; conditions: Homo sapiens; remark: listed apart in the source
HEK293 [12] = assay: cells; assay type: functional, cell-based; conditions: Homo sapiens; remark: listed apart in the source
HEK293 [13] = assay: NOD2 signaling inhibitors in MDP-stimulated cells, cell-based, uHTS, luminescence (AID 2001); assay type: functional; conditions: Homo sapiens
[14] = Shn3 3'UTR reporter inhibitors, dose response, cell-based, Clone20 osteoblasts, firefly luciferase, cherry-picked (AID 624132); assay type: functional;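 further: firefly luciferase luminescence from reporter carrying the Shn3 3'UTR in osteoblasts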
[15] = HepG2 cell cytotoxicity, dose response, cytotoxicity control for Shn3 inhibitor project, CellTiter-Glo, cherry-picked (AID 624134); assay type: functional, cell-based
[16] = control 3'UTR Renilla luciferase suppression, dose response, counter-screen for Shn3 inhibitor project, cell-based, Clone20-Shn3RL, cherry-picked (AID 624133); assay type: functional

Alkaline phosphatase, placental type, sequence (P05187 whole entry): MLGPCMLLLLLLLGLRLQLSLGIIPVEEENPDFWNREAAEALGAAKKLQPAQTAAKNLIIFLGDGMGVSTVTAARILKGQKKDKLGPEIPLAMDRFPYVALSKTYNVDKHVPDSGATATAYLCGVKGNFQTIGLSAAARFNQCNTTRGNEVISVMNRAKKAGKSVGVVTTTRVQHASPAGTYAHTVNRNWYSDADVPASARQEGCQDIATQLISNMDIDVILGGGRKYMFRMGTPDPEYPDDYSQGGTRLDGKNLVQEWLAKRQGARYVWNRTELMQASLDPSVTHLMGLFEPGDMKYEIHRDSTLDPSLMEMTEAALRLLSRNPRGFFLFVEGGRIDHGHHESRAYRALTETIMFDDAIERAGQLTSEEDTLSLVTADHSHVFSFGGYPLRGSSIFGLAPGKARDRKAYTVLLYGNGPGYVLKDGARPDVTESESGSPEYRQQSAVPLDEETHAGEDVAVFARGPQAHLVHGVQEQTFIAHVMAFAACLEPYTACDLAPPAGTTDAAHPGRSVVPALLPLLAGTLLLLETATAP
Eukaryotic translation initiation factor 4E, sequence (P63073 whole entry): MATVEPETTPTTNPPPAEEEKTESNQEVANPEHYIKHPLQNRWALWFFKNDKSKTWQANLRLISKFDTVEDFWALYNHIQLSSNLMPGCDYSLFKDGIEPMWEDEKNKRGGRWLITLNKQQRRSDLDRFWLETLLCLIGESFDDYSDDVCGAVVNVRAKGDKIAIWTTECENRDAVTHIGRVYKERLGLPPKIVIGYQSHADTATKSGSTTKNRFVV
Trypsin, sequence (P00761 whole entry): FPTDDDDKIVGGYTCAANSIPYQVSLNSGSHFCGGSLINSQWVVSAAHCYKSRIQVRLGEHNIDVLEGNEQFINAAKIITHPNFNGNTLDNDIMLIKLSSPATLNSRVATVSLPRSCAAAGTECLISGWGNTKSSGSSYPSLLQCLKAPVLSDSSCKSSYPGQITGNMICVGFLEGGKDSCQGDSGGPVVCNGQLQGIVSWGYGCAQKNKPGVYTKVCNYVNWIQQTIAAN
Genome polyprotein, sequence (P29990 2492-3391 limits assumed): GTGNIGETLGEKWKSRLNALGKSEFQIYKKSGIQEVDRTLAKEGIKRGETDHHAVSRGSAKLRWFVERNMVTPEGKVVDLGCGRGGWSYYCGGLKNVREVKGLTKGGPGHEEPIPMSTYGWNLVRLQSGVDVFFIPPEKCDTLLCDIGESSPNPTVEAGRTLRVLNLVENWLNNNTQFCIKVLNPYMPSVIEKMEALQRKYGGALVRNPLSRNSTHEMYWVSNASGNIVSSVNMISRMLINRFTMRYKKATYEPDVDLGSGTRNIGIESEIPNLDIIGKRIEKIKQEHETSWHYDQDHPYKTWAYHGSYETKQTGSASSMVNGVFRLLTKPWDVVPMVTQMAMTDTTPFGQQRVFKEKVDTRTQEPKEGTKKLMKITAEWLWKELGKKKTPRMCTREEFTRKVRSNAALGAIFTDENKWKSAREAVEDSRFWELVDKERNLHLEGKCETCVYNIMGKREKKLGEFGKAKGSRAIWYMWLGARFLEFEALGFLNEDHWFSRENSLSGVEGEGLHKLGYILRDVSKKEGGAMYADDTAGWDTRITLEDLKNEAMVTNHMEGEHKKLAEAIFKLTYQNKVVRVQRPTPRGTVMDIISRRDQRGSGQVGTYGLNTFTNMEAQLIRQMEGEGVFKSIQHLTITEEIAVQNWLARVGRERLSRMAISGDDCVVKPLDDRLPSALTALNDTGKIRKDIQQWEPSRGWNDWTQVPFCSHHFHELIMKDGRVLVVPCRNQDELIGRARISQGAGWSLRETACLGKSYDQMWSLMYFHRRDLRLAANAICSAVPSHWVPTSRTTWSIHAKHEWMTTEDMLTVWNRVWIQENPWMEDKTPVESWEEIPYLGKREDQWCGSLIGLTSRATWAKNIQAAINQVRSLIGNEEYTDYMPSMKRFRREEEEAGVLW

For `Cc1ccn(CC(=O)O)c(=O)c1`, the IC50 (Coagulation factor XII) was > 50 µM (inactive).

With `CCOc1cc(/C=C2\C(=O)NC(=O)N(C)C2=O)cc([N+](=O)[O-])c1O` the IC50 (HEK293 [1]) was 51.7 µM (inactive), the IC50 (Genome polyprotein) was 19.9 µM (active) and the IC50 [2] was > 67.5 µM (inactive).

In the case of `CCOCCCNC(=O)CCC(=O)NNc1nc2ccccc2c2nc(C)nn12`, the EC50 [3] is reported as > 300 µM (not active), the EC50 [4] is reported as 1.45 µM (active) and the IC50 [5] is reported as > 100 µM (inactive).

In the case of `O=[N+]([O-])c1ccc(N2CCN(C(S)=NCc3ccc(Cl)cc3)CC2)cc1`, the IC50 [6] is reported as 1.85 µM (active), the IC50 [7] is reported as 2.83 µM (active) and the AC50 (INS1) is reported as 6.14 µM (active).

In the case of `CCN(CC)N=Nc1cccc(NC(C)=O)c1`, the IC50 (HEK293 [1]) is reported as > 67.5 µM (inactive) and the IC50 [2] is reported as > 67.5 µM (inactive).

With `CCOc1cc(C=C2C(=O)NC(=O)NC2=O)cc([N+](=O)[O-])c1O` the AC50 [8] was 2.49 µM (active).

With `COc1ccc(CC2C(=O)NC(=O)N(c3ccccc3)C2=O)c(OC)c1` (centres undefined) the IC50 [9] was > 64 µM (inactive) and the AC50 [8] was 7.62 µM (active).

With `NS(=O)(=O)c1ccc(CCNC(=O)c2ccc3ccccc3n2)cc1` the AC50 (Trypsin) was 4.75 µM (active) and the AC50 (CAAX prenyl protease 2) was 4.74 µM (active).

For `COc1ccc(CNCC(=O)Nc2sccc2C#N)cc1`, the AC50 [8] was 25 µM (active).

For `Cc1ccc(NC(=O)CCn2cccc2)cc1C`, the IC50 (Coagulation factor XII) was > 50 µM (inactive).

In the case of `O=C(O)c1ccc(N/N=C/c2ccc(-c3ccccc3Cl)o2)cc1`, the AC50 (CAAX prenyl protease 2) is reported as 54.5 µM (active).

In the case of `CCN1CCN(Cc2ccc(NC(=O)c3ccc(C)c(NC(=O)C(=O)c4c[nH]c5ccccc45)c3)cc2C(F)(F)F)CC1`, the EC50 (HEK293 [10]) is reported as 17.2 µM (active), the IC50 [6] is reported as 2.15 µM (active) and the IC50 (HEK293 [11]) is reported as 4.96 µM (active). The IC50 [7] was 1.09 µM (active), the IC50 (HEK293 [12]) was 18.5 µM (active) and the IC50 (HEK293 [13]) was 13.1 µM (inactive). For the same molecule, the AC50 [14] was 7.49 µM (active), the AC50 [15] was 9.8 µM (active) and the AC50 [16] was 3.42 µM (active).
